# According to US20260184712A1, “Heterocyclic Compounds as ENT Inhibitors and Compounds for Use in the Treatment of Cancers” (iTeos Belgium SA, priority 2022, published 2026):
# pIC50: −log10 of the molar value.
# Experiments:
# [1] = system: stimulated primary human T cells; assay: T cell proliferation assay, Condition A (X-VIVO15); format: cell-based; details: Homo sapiens, T-cell, 96 h; Condition A: X-VIVO15 medium; anti-CD3/anti-CD28 beads, ATP, 4 days; CFSE-lo T cells
# Experimental: (§1) The goal of this study was to determine the potency of ENT1 inhibitors by measuring the rescued proliferation of stimulated primary human T cells incubated in the presence of 100 uM Adenosine triphosphate (ATP), in baseline conditions (condition A) or in the presence of various proteins known to bind small molecules (condition B).
# (§2) Venous blood from healthy volunteers, all of whom signed an informed consent approved by the Ethics Committee (FOR—UIC—BV-050-01-01 ICF_HBS_HD Version 5.0), was obtained by ImmuneHealth (Centre Hospitalier Universitaire Tivoli, La Louviere, Belgium). Mononuclear cells were collected by density gradient centrifugation, using SepMate-50 tubes (StemCell Technologies, Grenoble, France) and Lymphoprep (Stemcell Technologies) according to the manufacturer's instructions. CD3+ T cells were isolated by immunomagnetic negative selection, using the EasySep Human T Cell Isolation Kit (StemCell Technologies) as per the manufacturer's instructions. CD3+ T cells were stored in heat inactivated FBS (hiFBS; Gibco, ThermoFisher Scientific, Merelbeke, Belgium) and 10% DMSO in liquid nitrogen.
# (§3) Purified human CD3+ T cells were thawed and washed once with RPMI1640 medium, UltraGlutamine (Lonza, Verviers, Belgium) containing 10% hiFBS. Cells were resuspended in PBS containing 10% hiFBS at 1×10^7 cells/ml. One volume of cells was combined with a matching volume of 2 μM CFSE solution in PBS, mixed well by pipetting, and incubated at room temperature for 5 minutes under rotation and protected from light. Excess CFSE was quenched by addition of PBS containing 10% hiFBS, and the cells were centrifuged (300×rcf, 7 minutes) and resuspended in X-VIVO15. Cells were again centrifuged and resuspended in X-VIVO15 for counting.
# (§4) Cells were resuspended at 1.6×10^6 cells/mL in X-VIVO15 medium (Condition A) or X-VIVO15 medium containing 4% (v/v) HSA (Sigma-Aldrich, Diegem, Belgium) and 0.2% (v/v) ai-Acid Glycoprotein (Sigma-Aldrich, Diegem, Belgium) (Condition B).
# (§5) […] of cell suspension (2×10^4 cells) was added to wells of sterile flat-bottom 384-well plates. Cells were activated by adding […] of anti-CD3 anti-CD28 coated microbeads (Dynabeads human T-activator CD3/CD28; Life Technologies, Paisley, UK) suspended in X-VIVO15 medium or X-VIVO15 medium containing 4% (v/v) HSA and 0.2% (v/v) ai-Acid Glycoprotein at a ratio of one microbead per two cells. Serial dilutions of the ENT1 inhibitors were conducted in X-VIVO15 medium and […] of the diluent was added to the wells. Cells were mixed by pipetting up and down and pre-incubated for 30 minutes in a 37° C. humidified tissue culture incubator with 5% CO2. After pre-incubation, cells were cultured in the presence or absence of ATP (Sigma-Aldrich) at a final concentration of […]. The final well volume was 50 μl in all cases. Experiments were performed in biological duplicates. Cells were mixed by pipetting up and down and incubated for 4 days in a 37° C. humidified tissue culture incubator with 5% CO2.
# (§6) Samples were run on a BD LSR Fortessa FACS machine (BD FACSDiva Software v9.0.1). Data were analyzed using FlowJo (BD, v10.7.1). T cell proliferation was determined by measuring the frequency of ‘CFSE^lo’ (i.e. CFSE-diluted).
# (§7) T cell proliferation data were analyzed using FlowJo software (Version 10.6.2). Dead cells and cellular debris were excluded on the basis of forward and side scatter profile and singlet cells were selected for further analysis.
# (§8) T cell proliferation was determined based on the percent CFSE^lo total T cells for each condition. The data were plotted on the y-axis against log molar (M) concentration of ENT1 inhibitors on the x-axis in GraphPad Prism (version 9.0.0). IC50 and IC90 values were generated with the ‘log(agonist) vs. response—Find ECanything(F))’ function with F constrained to 50 or 90, respectively. pICF values were generated by taking the −logECF values.
# [2] = system: stimulated primary human T cells; assay: T cell proliferation assay, Condition B (X-VIVO15, 2% HSA and 0.1% AAG); format: cell-based; details: Homo sapiens, T-cell, 96 h; Condition B: X-VIVO15 medium containing HSA and α1-Acid Glycoprotein; anti-CD3/anti-CD28 beads, ATP, 4 days; CFSE-lo T cells
# Experimental: as §1
# Condition B: X-VIVO15, 2% Human Serum Albumin (HSA) and 0.1% α-1-Acid Glycoprotein (AAG)
# as §2, §3, §4, §5, §6, §7, §8
# human ENT1 = target: T1, human ENT1 (Homo sapiens, UniProt Q99808); assay: ENT1 binding assay (competition with Sahenta-DY647 on JAR cells); details: competition with SAHENTA-DY647 binding; IC50 categorized; read-out: Binding Assay IC50
# T1 construct: JAR cells expressing ENT1 were purchased from ATCC; host or cells: JAR cells
# T1 sequence (Q99808 1-456): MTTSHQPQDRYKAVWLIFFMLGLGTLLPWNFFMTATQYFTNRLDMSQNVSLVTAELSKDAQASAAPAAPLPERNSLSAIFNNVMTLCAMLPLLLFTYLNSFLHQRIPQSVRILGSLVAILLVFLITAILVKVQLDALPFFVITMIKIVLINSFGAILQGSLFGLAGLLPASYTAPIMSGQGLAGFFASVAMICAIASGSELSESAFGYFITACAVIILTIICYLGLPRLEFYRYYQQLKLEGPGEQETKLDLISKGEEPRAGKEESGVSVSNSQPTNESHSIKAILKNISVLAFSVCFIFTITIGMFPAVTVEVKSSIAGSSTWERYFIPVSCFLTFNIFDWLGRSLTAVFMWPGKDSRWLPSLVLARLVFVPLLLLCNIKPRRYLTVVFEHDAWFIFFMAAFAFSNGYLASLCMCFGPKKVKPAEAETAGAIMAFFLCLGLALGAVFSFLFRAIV
# How it was run: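 Whole-cell competition on JAR cells (native ENT1): 50,000 cells pre-incubated 30 min at 4 °C with compound in HBSS/10 mM Hepes/0.1% BSA, then 100 nM Sahenta-DY647 added for 30 min at 4 °C. After washing, fluorescence (Ex 630/Em 670 nm) read; IC50 from sigmoidal fit, averaged as pIC50.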
Compound,pIC50 [1],pIC50 [2],pIC50 (human ENT1)
CC(=O)N1CCC(Nc2nc3c(OCc4ccc(OC(F)F)cc4)ncnc3n2[C@@H]2O[C@H](C)[C@@H](O)[C@H]2O)CC1 [Compound 79],> 9.00,7.70 to 9.00,> 9.00
C[C@H]1O[C@@H](n2c(N[C@@H]3CCC(F)(F)C3)nc3c(OCc4ccc(C#N)cc4)ncnc32)[C@H](O)[C@@H]1O [Compound 81],> 9.00,6.30 to 7.70,> 9.00
C[C@H]1O[C@@H](n2c(NC3CCCC3)nc3c(OCc4ccc(C#N)c(F)c4)ncnc32)[C@H](O)[C@@H]1O [Compound 89],> 9.00,6.30 to 7.70,> 9.00
C[C@H]1O[C@@H](n2c(NCC3CCOC3)nc3c(OCc4ccc(C#N)cc4)ncnc32)[C@H](O)[C@@H]1O (stereo partly drawn) [Compound 108],7.70 to 9.00,6.30 to 7.70,7.70 to 9.00
C[C@H]1O[C@@H](n2c(NCC3CCOC3)nc3c(OCc4ccc(OC(F)F)cc4)ncnc32)[C@H](O)[C@@H]1O (stereo partly drawn) [Compound 112],> 9.00,6.30 to 7.70,7.70 to 9.00
C[C@H]1O[C@@H](n2c(NCC3CCOCC3)nc3c(OCc4ccc(OC(F)F)cc4)ncnc32)[C@H](O)[C@@H]1O [Compound 113],> 9.00,6.30 to 7.70,7.70 to 9.00
C[C@H]1O[C@@H](n2c(NCC3CC(F)(F)C3)nc3c(OCc4ccc(OC(F)F)nc4)ncnc32)[C@H](O)[C@@H]1O [Compound 114],> 9.00,6.30 to 7.70,7.70 to 9.00
C[C@H]1O[C@@H](n2c(N)nc3c(N4CCc5ccc([N+](=O)[O-])cc5C4)ncnc32)[C@H](O)[C@@H]1O [Compound 145],7.70 to 9.00,6.30 to 7.70,> 9.00
CCNc1nc2c(N3CCc4ccc([N+](=O)[O-])cc4C3)ncnc2n1[C@@H]1O[C@H](C)[C@@H](O)[C@H]1O [Compound 150],7.70 to 9.00,6.30 to 7.70,7.70 to 9.00
COC(=O)[C@H]1O[C@@H](n2cnc3c(SCc4ccc([N+](=O)[O-])cc4)ncnc32)[C@H](O)[C@@H]1O [Compound 152],< 6.30,< 6.30,7.70 to 9.00
C[C@H]1O[C@@H](n2c(NC3CCCC3)nc3c(N4CCc5ccc(C#N)cc5C4)ncnc32)[C@H](O)[C@@H]1O [Compound 153],> 9.00,6.30 to 7.70,7.70 to 9.00
CC(C)Nc1nc2c(N3CCc4ccc(C#N)cc4C3)ncnc2n1[C@@H]1O[C@H](C)[C@@H](O)[C@H]1O [Compound 154],7.70 to 9.00,< 6.30,7.70 to 9.00
OC[C@H]1O[C@@H](n2cnc3c(OCc4ccc(OC(F)(F)F)cc4)nc(Cl)nc32)[C@H](O)[C@@H]1O [Compound 156],7.70 to 9.00,6.30 to 7.70,7.70 to 9.00
C[C@H]1O[C@@H](n2cnc3c(/C=C/c4ccc([N+](=O)[O-])cc4)ncnc32)[C@H](O)[C@@H]1O [Compound 157],> 9.00,6.30 to 7.70,7.70 to 9.00
OC[C@H]1O[C@@H](n2c(NC3CCCC3)nc3c(SCc4ccccc4)ncnc32)[C@H](O)[C@@H]1O [Compound 158],7.70 to 9.00,6.30 to 7.70,7.70 to 9.00
O=[N+]([O-])c1ccc(CSc2ncnc3c2ncn3[C@@H]2O[C@H](CF)[C@@H](O)[C@H]2O)cc1 [Compound 159],7.70 to 9.00,< 6.30,7.70 to 9.00
C[C@H]1O[C@@H](n2cnc3c(OCc4ccc(OC(F)F)cc4)nc(Cl)nc32)[C@H](O)[C@@H]1O [Compound 161],7.70 to 9.00,6.30 to 7.70,7.70 to 9.00
OCCOC[C@H]1O[C@@H](n2cnc3c(OCc4ccc(OC(F)F)cc4)nc(Cl)nc32)[C@H](O)[C@@H]1O [Compound 162],7.70 to 9.00,6.30 to 7.70,7.70 to 9.00
C[C@H]1O[C@@H](n2cnc3c(SCc4ccc(C#N)cc4)ncnc32)[C@H](O)[C@@H]1O [Compound 165],7.70 to 9.00,< 6.30,6.30 to 7.70
C[C@H]1O[C@@H](n2cnc3c(OCc4ccc(C#N)c(F)c4)ncnc32)[C@H](O)[C@@H]1O [Compound 174],7.70 to 9.00,< 6.30,6.30 to 7.70
C[C@H]1O[C@@H](n2cnc3c(SCc4ccc(OC(F)F)cc4)ncnc32)[C@H](O)[C@@H]1O [Compound 176],7.70 to 9.00,< 6.30,6.30 to 7.70
C[C@H]1O[C@@H](n2cnc3c(N(C)Cc4ccc([N+](=O)[O-])cc4)ncnc32)[C@H](O)[C@@H]1O [Compound 177],6.30 to 7.70,< 6.30,6.30 to 7.70
C[C@H]1O[C@@H](n2cnc3c(OCc4ccc(OC(F)(F)F)cc4)ncnc32)[C@H](O)[C@@H]1O [Compound 180],7.70 to 9.00,< 6.30,6.30 to 7.70
C[C@H]1O[C@@H](n2cnc3c(OCc4ccc(C(F)F)cc4)ncnc32)[C@H](O)[C@@H]1O [Compound 182],7.70 to 9.00,< 6.30,6.30 to 7.70
C[C@H]1O[C@@H](n2cnc3c(NCc4ccc([N+](=O)[O-])cc4)ncnc32)[C@H](O)[C@@H]1O [Compound 185],6.30 to 7.70,< 6.30,6.30 to 7.70
Cc1nc(-c2ccc(CSc3ncnc4c3ncn4[C@@H]3O[C@H](C)[C@@H](O)[C@H]3O)cc2)no1 [Compound 186],7.70 to 9.00,< 6.30,6.30 to 7.70
C[C@H]1O[C@@H](n2cnc3c(OCc4ccc(Cl)cc4)ncnc32)[C@H](O)[C@@H]1O [Compound 187],7.70 to 9.00,< 6.30,6.30 to 7.70
C[C@H]1O[C@@H](n2cnc3c(OCCc4ccc(C#N)nn4)ncnc32)[C@H](O)[C@@H]1O [Compound 188],7.70 to 9.00,< 6.30,6.30 to 7.70
CC(=O)NC[C@H]1O[C@@H](n2cnc3c(SCc4ccc([N+](=O)[O-])cc4)ncnc32)[C@H](O)[C@@H]1O [Compound 189],7.70 to 9.00,< 6.30,6.30 to 7.70
